Results reported in US8741951B2, “Non-steroidal compounds for androgen receptor modulation” (CNR—Consiglio Nazionale delle Ricerche, priority 2009, dated 2014).
“Also recorded” adds a separate entry of the source.

Experiments:
[1] = target: T1, human androgen receptor (hAR) (Homo sapiens, UniProt P10275); assay: hAR transactivation assay (ARE-luc) in Cos-7 cells; type: cell-based
T1 construct: expressed in transfected cells; host or cells: Cos-7
T1 sequence (P10275 1-920): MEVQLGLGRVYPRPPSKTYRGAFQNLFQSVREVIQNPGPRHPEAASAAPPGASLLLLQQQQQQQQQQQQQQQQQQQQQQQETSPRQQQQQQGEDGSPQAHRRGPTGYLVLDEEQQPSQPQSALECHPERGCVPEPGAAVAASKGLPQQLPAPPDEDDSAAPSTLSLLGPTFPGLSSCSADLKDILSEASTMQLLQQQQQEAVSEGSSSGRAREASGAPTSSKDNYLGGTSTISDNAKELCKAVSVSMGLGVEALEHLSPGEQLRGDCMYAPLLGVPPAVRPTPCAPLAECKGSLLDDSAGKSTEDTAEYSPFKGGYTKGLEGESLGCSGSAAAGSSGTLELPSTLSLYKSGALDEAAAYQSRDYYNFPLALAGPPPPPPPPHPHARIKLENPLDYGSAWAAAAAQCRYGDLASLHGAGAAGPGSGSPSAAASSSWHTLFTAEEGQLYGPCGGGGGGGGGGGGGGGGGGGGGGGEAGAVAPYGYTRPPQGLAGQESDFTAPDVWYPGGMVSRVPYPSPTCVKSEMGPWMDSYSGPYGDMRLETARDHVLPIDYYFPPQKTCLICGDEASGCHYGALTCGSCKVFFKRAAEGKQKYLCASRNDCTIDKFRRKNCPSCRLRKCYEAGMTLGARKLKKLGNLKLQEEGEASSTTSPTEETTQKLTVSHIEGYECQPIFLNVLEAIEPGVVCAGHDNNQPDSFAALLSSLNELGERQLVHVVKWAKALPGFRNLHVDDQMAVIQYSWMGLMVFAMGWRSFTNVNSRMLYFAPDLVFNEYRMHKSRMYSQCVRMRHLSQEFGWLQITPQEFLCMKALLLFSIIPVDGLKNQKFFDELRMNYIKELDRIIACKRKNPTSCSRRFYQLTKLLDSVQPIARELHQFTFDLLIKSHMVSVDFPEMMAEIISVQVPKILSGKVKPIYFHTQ
From the text: The cDNA coding hAR was cloned into the pSG5 expression vector as reported previously [Chang, C. S., J. Kokontis, and S. T. Liao 1988 Molecular cloning of human and rat complementary DNA encoding androgen receptors Science 240:324-326].
The 3416 construct (ARE-Luc), containing four copies of the wild-type slp-HRE2 (5′-TGGTCAgccAGTTCT-3′) was cloned in the NheI site in pTK-TATA-Luc [Verrijdt, G., E. Schoenmakers, A. Haelens, B. Peeters, G. Verhoeven, W. Rombauts, and F. Claessens 2000 Change of specificity mutations in androgen selective enhancers J. Biol. Chem. 275:12298-12305].
For androgen-stimulated transcriptional analysis, 32×10^4 Cos-7 cells were plated in phenol red-free DMEM containing 5% charcoal-stripped serum. After 48 h, the cells were transfected by Superfect (Qiagen) with 0.3 μg of 3416-pTK-TATA-Luc construct, together with 1.5 μg of either pSG5-empty plasmid or pSG5-hAR expressing plasmid. […] When indicated, the synthetic compounds were added alone to the cell medium. […] It was dissolved in 0.001% (final concentration) ethanol. Control cells were treated with the vehicle alone. Lysates were prepared and the luciferase activity was measured using a luciferase assay system (Promega). The results were corrected using CH110-expressed beta-galactosidase activity (Amersham Biosciences) and luciferase activity was expressed as fold induction. Results were obtained from two or three different experiments, each performed in duplicate. Mean and SEM are shown.

[2] = test system: normal stem cells derived from human peripheral blood stem cells; assay: Colony-forming cell assay (GM-CFU); type: cell-based
Protocol: The colony-forming cell assay was used as previously described [Matta M R, Mangianti S, Rizzi S, Ratta M, Campanini E, Fortuna A, et al. Pharmacological purging of minimal residual disease from peripheral blood stem cell collections of acute myloblastic leukaemia patients: preclinical studies. Exp Hematol 1997; 25:1261-1269]. In brief, for each molecule, 5×10^4 cells were plated in duplicate in a complete culture medium (MethoCult H4434, StemCell Technologies, Vancouver, Canada) containing different concentrations (0.2, 2, and 20 μmol/l) of the compound. After 14 days of incubation in a humidified atmosphere of 5% CO2 at the temperature of 37° C., granulocyte macrophage colony-forming unit (GM-CFU) aggregates of more than 50 cells were counted. Control cells were incubated under the same conditions but in drug-free medium.

[3] = test system: human CW22-RV1 prostate carcinoma xenograft; assay: In vivo antitumor activity, CW22-RV1 xenograft s.c. in nude mice
Protocol: CW-22Rv1, a human prostate carcinoma epithelial cell line were purchased from ATCC.
In vivo antitumor activity experiments with the compound (R)-XXIII-6 were carried out using female athymic Swiss nude mice 8 to 10 weeks of age (Charles River, Calco, Italy). Mice were maintained in laminar flow rooms, keeping temperature and humidity constant. Mice had free access to food and water. Experiments were approved by the Ethics Committee for Animal Experimentation of the Istituto Nazionale Tumori (Milan, Italy).
Human CW22-RV1 cells, a human prostate carcinoma epithelial cell line, derived from a xenograft that was serially propagated in mice after castration-induced regression and relapse of the parental, androgen-dependent CWR22 xenograft, were used for in vivo experiments. The prostate carcinoma cell line were inoculated by subcutaneous injection (s.c.) in the right flank of nude mice, at day 0. Treatment started at day 3 when tumor weights were around 60 mg.
The efficacy of the drug treatment was assessed as: (a) TWI % in treated versus control mice, calculated as TWI=100−(mean TW treated/mean TW control×100).
The toxicity of the drug treatment was assessed as: (a) BWL calculated as BWL=100−(mean BWdayx/mean BWday1×100), where day 1 is the first day of treatment and day x is any day after (mice were weighed twice/week throughout the experimental frame and in the table 3 the maximum BWL value was reported); and (b) lethal toxicity, i.e., any death in treated groups occurring before any control death (mice were inspected daily for mortality).

Question: What does the source list for `N#Cc1ccc(NC(=O)[C@](O)(Cc2cccs2)CS(=O)(=O)c2ccc(F)cc2)cc1C(F)(F)F` [(R)-XXIII-6]?
Answer: inhibition of R1881-induced AR transcriptional activation (antagonistic activity), in words ([1]; compound 10 μM with 10 nM R1881): antagonistic activity; agonistic activity on AR transcription, in words ([1]; compound alone, 10 nM to 1 μM or 10 μM): does not seem to display agonistic activity; inhibition of clonogenic growth of normal stem cells (mielotoxicity), in words ([2]; 0.2, 2, 20 μmol/l, 14 days): does not seem to exert significant mielotoxicity; also recorded: weak cytostatic activity; GI50 ([2]; hematopoietic precursors, highest concentration tested 20 μmol/l): not being able to reach GI50 value; Tox/Tot (deaths in treated mice before any control death) ([3]; 100 mg/Kg p.o.): 0/6; day of Max TWI % (day after tumor inoculum) ([3]; 100 mg/Kg p.o.): 23 days; Max TWI % ([3]; 100 mg/Kg p.o., (qdx5/wx2w) × 2 cycles): 45%; Max BWL (maximum body weight loss in percentage) ([3]; 100 mg/Kg p.o., during drug treatment): 2%; tolerability, in words ([3]; 100 mg/kg p.o.): generally well tolerated, with no signs of acute or delayed toxicity; antitumor activity / tumor weight, in words ([3]; 100 mg/kg p.o., versus untreated mice): significant reduction in tumor weight; also recorded: effective in slowing tumor growth
